Experimental data published in patent publication US10183936B2, “Hepatitis B core protein allosteric modulators” (priority 2014, dated 2019).

Key:
AD38 cells = assay: Viability of AD38 cells (Promega CellTiter-Glo) at the end of compound treatment; type: cell-based; conditions: 10 μM compound, 6 days, luminescence normalized against DMSO control wells (controls being 100%)
Outline: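 AD38 cells seeded at 50,000/well received compound from a 10× solution in 10% DMSO and were incubated 6 days at 37° C. Viability was then read by CellTiter-Glo luminescence in tetracycline-free medium with 2% FBS and 1% DMSO, normalized to DMSO control wells (100%) and reported as percent viability.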

[1] = system: HBV viral production in AD38 cells; assay: Viral load production in AD38 cells by quantitative PCR of the HBV core sequence in supernatant; type: cell-based; conditions: Hepatitis B virus, 144 h; 10 μM compound, 6 days at 37° C., viral load in supernatant compared against DMSO control wells; read-out: AD38 Viral Load (CpAM/DMSO %) at 10 μM
Outline: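 AD38 cells seeded at 50,000/well, treated 6 days at 37° C with compound added as 10× solution in 10% DMSO. HBV core sequence in clarified supernatant quantified by TaqMan qPCR against known standards; viral load compared with DMSO control wells.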

Question: With `COC(=O)c1ccccc1-c1cccc(NC(=O)c2ccc3c(c2)NC(=O)c2cc(F)ccc2S3)c1` [Compound 1436, Methyl 3′-(2-fluoro-11-oxo-10, 11-dihydrodibenzo [b,f] [1,4]thiazepine-8-carboxamido)-[1, 1′-biphenyl]-2-carboxylate] as the compound, how does the “AD38 Viability Normalized Result (CPAM/DMSO %) at 10 μM” value (AD38 cells) read?
Answer: Its value is 104%.

Question: What about the activity at 10 µM [1] of the same compound?
Answer: Its activity at 10 µM is 10%.

Question: Which “AD38 Viability Normalized Result (CPAM/DMSO %) at 10 μM” value (AD38 cells) does the source give for `Cc1cc2c(cc1C(=O)NCCC1CCCCC1)NC(=O)c1ccccc1S2` [Compound 1275] here?
Answer: The value was 93%.

Question: And the activity at 10 µM [1]?
Answer: The activity at 10 µM was 3%.

Question: With `O=C(Nc1ccccc1)c1ccc2c(c1)NC(=O)c1ccccc1S2` [Compound 1223] as the compound, how does the “AD38 Viability Normalized Result (CPAM/DMSO %) at 10 μM” value (AD38 cells) read?
Answer: The value was 28%.

Question: And the activity at 10 µM [1]?
Answer: The activity at 10 µM was 2%.

Question: What does the source list for `O=C(NCc1cnco1)c1cc2c(cc1F)Sc1ccccc1C(=O)N2` [Compound 1430]?
Answer: AD38 Viability Normalized Result (CPAM/DMSO %) at 10 μM (AD38 cells): 92%; activity at 10 µM [1]: 56%

Question: `COC(=O)c1ccccc1-c1cccc(NC(=O)c2ccc3c(c2)NC(=O)c2ccccc2S3(=O)=O)c1` [Compound 1628] was tested. Which “AD38 Viability Normalized Result (CPAM/DMSO %) at 10 μM” value (AD38 cells) did it give?
Answer: Its value is 138%.

Question: What about the activity at 10 µM [1] of the same compound?
Answer: Its activity at 10 µM is 17%.

Question: What does the source list for `CCc1cccc(CNC(=O)c2ccc3c(c2)NC(=O)c2ccccc2S3)c1` [Compound 1283]?
Answer: AD38 Viability Normalized Result (CPAM/DMSO %) at 10 μM (AD38 cells): 97%; activity at 10 µM [1]: 1%
